Measurements as given in patent publication US20090075951A1, “Methods and Reagents for the Treatment of Inflammatory Disorders” (CombinatoRx, Inc., priority 2003, published 2009).
Values joined by “and” are separate entries in the source; they are usually repeats but may differ in a detail not shown here. Equal values may be shown once. Read-outs that look alike come from different tables or passages of the source.

Columns and labels:
[1] = system: TNFα secretion from LPS stimulated white blood cells from human buffy coat; test: TNFα secretion assay, LPS stimulation; conditions: for percent inhibition of TNFα secretion: LPS
Experimental: (§1) Various concentrations of each test compound were added at the time of stimulation. […] After the plate was washed with 0.1% Tween 20/PBS, an HRP-luminescent substrate was added to each well and light intensity measured using a LJL Analyst plate luminometer.

[2] = system: TNFα secretion from PMA/ionomycin stimulated white blood cells from human buffy coat; test: TNFα secretion assay, PMA/ionomycin stimulation; conditions: for inhibition at 0.01 µM: read-out: TNFα PI percent inhibition, 0.01 μM
Experimental: as §1

cytokine secretion = test: Suppression of cytokine secretion in vitro by individual tricyclic compounds
Experimental: Individual tricyclic compounds were tested for their ability to suppress cytokine secretion in vitro.

[3] = read-out: TNFα PI percent inhibition, […]
[4] = read-out: IL-1β LPS percent inhibition
[5] = read-out: IL-2 PI percent inhibition
[6] = Protriptyline μM by row r6-r17: 67.00, 33.50, 16.75, 8.38, 4.19, 2.09, 1.05, 0.52, 0.26, 0.13, 0.07, 0.03
[7] = Amoxapine μM: 32.00, 16.00, 8.00, 4.00, 2.00, 1.00, 0.50, 0.25, 0.13, 0.06, 0.03, 0.02
[8] = Clomipramine μM: 57.00, 28.50, 14.25, 7.13, 3.56, 1.78, 0.89, 0.45, 0.22, 0.11, 0.06, 0.03
[9] = Nortriptyline μM by row r6-r17: 67.00, 33.50, 16.75, 8.38, 4.19, 2.09, 1.05, 0.52, 0.26, 0.13, 0.07, 0.03

CC(CN(C)C)CN1c2ccccc2CCc2ccccc21 (stereo not shown) [Trimipramine, trimipramine]
inhibition at 0.01 µM ([1]; Homo sapiens, read-out: TNFα LPS percent inhibition, 0.01 μM): 0%
inhibition at 0.03 µM ([1]; Homo sapiens, read-out: TNFα LPS percent inhibition, 0.03 μM): 1%
inhibition at 0.06 µM ([1]; Homo sapiens, read-out: TNFα LPS percent inhibition, 0.06 μM): 3%
inhibition at 29 µM ([1]; Homo sapiens, read-out: TNFα LPS percent inhibition, […]): 11%
inhibition at 0.01 µM [2]: 0%
inhibition at 0.03 µM ([2]; read-out: TNFα PI percent inhibition, 0.03 μM): 0%
inhibition at 0.06 µM ([2]; read-out: TNFα PI percent inhibition, 0.06 μM): 0%
inhibition at 29 µM [2, 3]: 77%
inhibition at 0.01 µM (cytokine secretion; [4]): 0%
inhibition at 0.03 µM (cytokine secretion; [4]): 0%
inhibition at 0.06 µM (cytokine secretion; [4]): 0%
inhibition at 29 µM (cytokine secretion; [4]): 2%
inhibition at 0.01 µM (cytokine secretion; [5]): 0%
inhibition at 0.03 µM (cytokine secretion; [5]): 5%
inhibition at 0.06 µM (cytokine secretion; [5]): 6%
inhibition at 29 µM (cytokine secretion; [5]): 36%

Clc1ccc2c(c1)N=C(N1CCNCC1)c1ccccc1N2 [Norclozapine, norclozapine]
percent inhibition of TNFα secretion ([1]; Prednisolone 0 μM, Norclozapine μM r5-r13: 0,0.21,0.41,0.83,1.7,3.3,6.6,13,27): −17%

OCCOCCN1CCN(C2=Nc3ccccc3Sc3ccccc32)CC1 [Quetiapine fumurate]
inhibition at 0.01 µM [2]: 7%
inhibition at 0.02 µM ([2]; read-out: TNFα PI percent inhibition, 0.02 μM): 0%
inhibition at 0.05 µM ([2]; read-out: TNFα PI percent inhibition, 0.05 μM): 0%
inhibition at 11 µM [2, 3]: 13%
inhibition at 0.01 µM (cytokine secretion; [5]): 0%
inhibition at 0.02 µM (cytokine secretion; [5]): 0%
inhibition at 0.05 µM (cytokine secretion; [5]): 0%
inhibition at 11 µM (cytokine secretion; [5]): 0%

CNCCCC1c2ccccc2C=Cc2ccccc21 [Protriptyline, protriptyline]
IL-1β LPS, percent inhibition relative to untreated controls (cytokine secretion; [6]): 0%
IL-2 PI, percent inhibition relative to untreated controls (cytokine secretion; [6]): 0%
TNFα LPS, percent inhibition relative to untreated controls (cytokine secretion; [6]): 2% and 0%
TNFα PI, percent inhibition relative to untreated controls (cytokine secretion; [6]): 0%

CN1CCN(C2=Nc3cc(F)ccc3Cc3ccccc32)CC1 [Fluperlapine, fluperlapine]
inhibition at 0.01 µM [2]: 0%
inhibition at 0.04 µM ([2]; read-out: TNFα PI percent inhibition, 0.04 μM): 0%
inhibition at 0.4 µM ([2]; read-out: TNFα PI percent inhibition, 0.40 μM): 0%
inhibition at 32 µM [2, 3]: 25%
inhibition at 0.01 µM (cytokine secretion; [5]): 6%
inhibition at 0.04 µM (cytokine secretion; [5]): 8%
inhibition at 0.4 µM (cytokine secretion; [5]): 7%
inhibition at 32 µM (cytokine secretion; [5]): 1%

Clc1ccc2c(c1)C(N1CCNCC1)=Nc1ccccc1O2 [Amoxapine, amoxapine]
percent inhibition of TNFα secretion ([1]; Prednisolone 0.5 μM, Amoxapine μM r5-r13: 0,0.25,0.5,1,2,4,8,16,32): 68.1%
IL-1β LPS, percent inhibition relative to untreated controls (cytokine secretion; [7]): 5% and 0%
IL-2 PI, percent inhibition relative to untreated controls (cytokine secretion; [7]): 0%
TNFα LPS, percent inhibition relative to untreated controls (cytokine secretion; [7]): 0%
TNFα PI, percent inhibition relative to untreated controls (cytokine secretion; [7]): 4% and 0%

CN(C)CCCN1c2ccccc2CCc2ccc(Cl)cc21 [Clomipramine, clomipramine]
percent inhibition of TNFα secretion ([1]; Prednisolone 1 μM, Clomipramine μM r5-r13: 0,0.45,0.89,1.8,3.6,7.1,14,28,57): 69.3%
IL-1β LPS, percent inhibition relative to untreated controls (cytokine secretion; [8]): 3% and 0%
IL-2 PI, percent inhibition relative to untreated controls (cytokine secretion; [8]): 5% and 0%
TNFα LPS, percent inhibition relative to untreated controls (cytokine secretion; [8]): 0%
TNFα PI, percent inhibition relative to untreated controls (cytokine secretion; [8]): 0%

C[C@]12CCC(=O)C=C1CC[C@@H]1[C@@H]2[C@@H](O)C[C@@]2(C)[C@H]1CC[C@]2(O)C(=O)CO [Hydrocortisone, hydrocortisone]
inhibition at […] ([2]; read-out: inhibition of TNFα secretion, Hydrocortisone 21 nM, Desipramine nM: 0, 50, 200, 799, 3197, 13000): -1.79%
inhibition at […] ([2]; read-out: inhibition of TNFα secretion, Hydrocortisone 21 nM, Imipramine nM: 0, 99, 394, 1578, 6311, 25000): -4.17%
inhibition at […] ([2]; read-out: inhibition of TNFα secretion, Hydrocortisone 21 nM, Nortriptyline nM: 0, 52, 208, 834, 3336, 13000): 4.44%
inhibition at […] ([2]; read-out: inhibition of TNFα secretion, Hydrocortisone 21 nM, Protriptyline nM: 0, 52, 208, 834, 3336, 13000): 2.86%
inhibition at […] ([2]; read-out: inhibition of TNFα secretion, Hydrocortisone 83 nM, Desipramine nM: 0, 50, 200, 799, 3197, 13000): 9.01%
inhibition at […] ([2]; read-out: inhibition of TNFα secretion, Hydrocortisone 83 nM, Imipramine nM: 0, 99, 394, 1578, 6311, 25000): 5.91%
inhibition at […] ([2]; read-out: inhibition of TNFα secretion, Hydrocortisone 83 nM, Nortriptyline nM: 0, 52, 208, 834, 3336, 13000): 13.6%
inhibition at […] ([2]; read-out: inhibition of TNFα secretion, Hydrocortisone 83 nM, Protriptyline nM: 0, 52, 208, 834, 3336, 13000): 13.6%
inhibition at 1.324 µM ([2]; read-out: inhibition of TNFα secretion, Hydrocortisone 1324 nM, Desipramine nM: 0, 50, 200, 799, 3197, 13000): 34.4%
inhibition at 1.324 µM ([2]; read-out: inhibition of TNFα secretion, Hydrocortisone 1324 nM, Imipramine nM: 0, 99, 394, 1578, 6311, 25000): 30.3%
inhibition at 1.324 µM ([2]; read-out: inhibition of TNFα secretion, Hydrocortisone 1324 nM, Nortriptyline nM: 0, 52, 208, 834, 3336, 13000): 35.7%
inhibition at 1.324 µM ([2]; read-out: inhibition of TNFα secretion, Hydrocortisone 1324 nM, Protriptyline nM: 0, 52, 208, 834, 3336, 13000): 36.8%
inhibition at 5.297 µM ([2]; read-out: inhibition of TNFα secretion, Hydrocortisone 5297 nM, Desipramine nM: 0, 50, 200, 799, 3197, 13000): 38.6%
inhibition at 5.297 µM ([2]; read-out: inhibition of TNFα secretion, Hydrocortisone 5297 nM, Imipramine nM: 0, 99, 394, 1578, 6311, 25000): 33.8%
inhibition at 5.297 µM ([2]; read-out: inhibition of TNFα secretion, Hydrocortisone 5297 nM, Nortriptyline nM: 0, 52, 208, 834, 3336, 13000): 36.5%
inhibition at 5.297 µM ([2]; read-out: inhibition of TNFα secretion, Hydrocortisone 5297 nM, Protriptyline nM: 0, 52, 208, 834, 3336, 13000): 38.2%
inhibition at […] ([2]; read-out: percent inhibition of TNFα secretion, Hydrocortisone 21 nM, Amitriptyline nM: 0, 50, 199, 796, 3186, 13000): -2.95%
inhibition at […] ([2]; read-out: percent inhibition of TNFα secretion, Hydrocortisone 21 nM, Amoxapine nM: 0, 12, 50, 199, 797, 3187): 1.78%
inhibition at […] ([2]; read-out: percent inhibition of TNFα secretion, Hydrocortisone 21 nM, Clomipramine nM: 0, 45, 178, 712, 2848, 11000): -0.248%
inhibition at […] ([2]; read-out: percent inhibition of TNFα secretion, Hydrocortisone 83 nM, Amitriptyline nM: 0, 50, 199, 796, 3186, 13000): 5.95%
inhibition at […] ([2]; read-out: percent inhibition of TNFα secretion, Hydrocortisone 83 nM, Amoxapine nM: 0, 12, 50, 199, 797, 3187): 11.4%
inhibition at […] ([2]; read-out: percent inhibition of TNFα secretion, Hydrocortisone 83 nM, Clomipramine nM: 0, 45, 178, 712, 2848, 11000): 9.9%
inhibition at 1.324 µM ([2]; read-out: percent inhibition of TNFα secretion, Hydrocortisone 1324 nM, Amitriptyline nM: 0, 50, 199, 796, 3186, 13000): 32.2%
inhibition at 1.324 µM ([2]; read-out: percent inhibition of TNFα secretion, Hydrocortisone 1324 nM, Amoxapine nM: 0, 12, 50, 199, 797, 3187): 31.6%
inhibition at 1.324 µM ([2]; read-out: percent inhibition of TNFα secretion, Hydrocortisone 1324 nM, Clomipramine nM: 0, 45, 178, 712, 2848, 11000): 33%
inhibition at 5.297 µM ([2]; read-out: percent inhibition of TNFα secretion, Hydrocortisone 5297 nM, Amitriptyline nM: 0, 50, 199, 796, 3186, 13000): 36.9%
inhibition at 5.297 µM ([2]; read-out: percent inhibition of TNFα secretion, Hydrocortisone 5297 nM, Amoxapine nM: 0, 12, 50, 199, 797, 3187): 31.9%
inhibition at 5.297 µM ([2]; read-out: percent inhibition of TNFα secretion, Hydrocortisone 5297 nM, Clomipramine nM: 0, 45, 178, 712, 2848, 11000): 37.1%

CNCCC=C1c2ccccc2CCc2ccccc21 [Nortriptyline, nortriptyline]
IL-1β LPS, percent inhibition relative to untreated controls (cytokine secretion; [9]): 3% and 0%
IL-2 PI, percent inhibition relative to untreated controls (cytokine secretion; [9]): 0%
TNFα LPS, percent inhibition relative to untreated controls (cytokine secretion; [9]): 1% and 0%
TNFα PI, percent inhibition relative to untreated controls (cytokine secretion; [9]): 2%
